Data as given in PubChem BioAssay (NCI).
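A five-concentration, 48-hour dose response in 96-well plates underlies each endpoint, interpolated linearly between surrounding concentrations. Definition used: TGI = concentration required for complete inhibition of growth.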

Key:
Assay in all cases: NCI anticancer screen, dose series, 48 h
[1] = system: SF-295 CNS
[2] = system: MOLT-4 leukemia
[3] = system: OVCAR-8 ovarian
[4] = system: DMS 114 small cell lung
[5] = system: MALME-3M melanoma
[6] = system: M19-MEL melanoma
[7] = system: ACHN renal
[8] = system: SN12C renal
[9] = system: A498 renal
[10] = system: A549 NSCLC
[11] = system: OVCAR-3 ovarian
[12] = system: EKVX NSCLC
[13] = system: SNB-19 CNS
[14] = system: HOP-18 NSCLC
[15] = system: 786-0 renal
[16] = system: CAKI-1 renal
[17] = system: SR leukemia
[18] = system: HOP-62 NSCLC
[19] = system: DLD-1 colon
[20] = system: SK-OV-3 ovarian
[21] = system: SNB-75 CNS
[22] = system: IGROV1 ovarian
[23] = system: SK-MEL-2 melanoma
[24] = system: RPMI-8226 leukemia
[25] = system: KM12 colon
[26] = system: OVCAR-5 ovarian
[27] = system: NCI-H460 lung
[28] = system: UACC-62 melanoma
[29] = system: SNB-78 CNS
[30] = system: HT29 colon
[31] = system: NCI-H522 lung
[32] = system: UACC-257 melanoma
[33] = system: UO-31 renal
[34] = system: RXF 393 renal
[35] = system: HCT-15 colon
[36] = system: OVCAR-4 ovarian
[37] = system: HL-60(TB) leukemia
[38] = system: M14 melanoma
[39] = system: SF-268 CNS
[40] = system: CCRF-CEM leukemia
[41] = system: SK-MEL-28 melanoma
[42] = system: HCT-116 colon
[43] = system: NCI-H23 lung
[44] = system: KM20L2 colon
[45] = system: HCC-2998 colon
[46] = system: K-562 leukemia
[47] = system: LOX IMVI melanoma
[48] = system: COLO 205 colon
[49] = system: TK-10 renal
[50] = system: LXFL 529 NSCLC
[51] = system: SK-MEL-5 melanoma
[52] = system: DMS 273 small cell lung
[53] = system: U251 CNS
[54] = system: NCI-H226 lung
[55] = system: SW-620 colon
[56] = system: SF-539 CNS

Structure (SMILES): COc1ccc(OC)c2c3c(ccc12)C(c1ccccc1)OC3=O (stereo unspecified)
- TGI [1]: > 100 µM
- TGI [2]: 99.7 µM
- TGI [3]: > 100 µM
- TGI [4]: > 100 µM
- TGI [5]: > 100 µM
- TGI [6]: > 100 µM
- TGI [7]: > 100 µM
- TGI [8]: > 100 µM
- TGI [9]: > 100 µM
- TGI [10]: > 100 µM
- TGI [11]: 79.9 µM
- TGI [12]: > 100 µM
- TGI [13]: > 100 µM
- TGI [14]: > 100 µM
- TGI [15]: > 100 µM
- TGI [16]: > 100 µM
- TGI [17]: > 100 µM
- TGI [18]: > 100 µM
- TGI [19]: > 100 µM
- TGI [20]: > 100 µM
- TGI [21]: > 100 µM
- TGI [22]: > 100 µM
- TGI [23]: > 100 µM
- TGI [24]: > 100 µM
- TGI [25]: > 100 µM
- TGI [26]: > 100 µM
- TGI [27]: > 100 µM
- TGI [28]: > 100 µM
- TGI [29]: 64.9 µM
- TGI [30]: > 100 µM
- TGI [31]: > 100 µM
- TGI [32]: > 100 µM
- TGI [33]: > 100 µM
- TGI [34]: > 100 µM
- TGI [35]: > 100 µM
- TGI [36]: > 100 µM
- TGI [37]: > 100 µM
- TGI [38]: > 100 µM
- TGI [39]: > 100 µM
- TGI [40]: > 100 µM
- TGI [41]: > 100 µM
- TGI [42]: > 100 µM
- TGI [43]: > 100 µM
- TGI [44]: > 100 µM
- TGI [45]: > 100 µM
- TGI [46]: > 100 µM
- TGI [47]: > 100 µM
- TGI [48]: > 100 µM
- TGI [49]: > 100 µM
- TGI [50]: > 100 µM
- TGI [51]: > 100 µM
- TGI [52]: > 100 µM
- TGI [53]: > 100 µM
- TGI [54]: > 100 µM
- TGI [55]: > 100 µM

Structure (SMILES): O=C1C=CC2(C=C1)C[C@H](NC(=O)C(F)(F)F)C(=O)O2
- TGI [1]: > 100 µM
- TGI [2]: > 100 µM
- TGI [3]: > 100 µM
- TGI [4]: > 100 µM
- TGI [5]: 40.3 µM
- TGI [6]: 63.8 µM
- TGI [7]: > 100 µM
- TGI [8]: > 100 µM
- TGI [9]: > 100 µM
- TGI [10]: > 100 µM
- TGI [56]: > 100 µM
- TGI [11]: > 100 µM
- TGI [12]: 39.6 µM
- TGI [13]: > 100 µM
- TGI [15]: > 100 µM
- TGI [16]: > 100 µM
- TGI [17]: > 100 µM
- TGI [18]: > 100 µM
- TGI [19]: 53.1 µM
- TGI [20]: > 100 µM
- TGI [21]: > 100 µM
- TGI [24]: > 100 µM
- TGI [25]: > 100 µM
- TGI [26]: > 100 µM
- TGI [27]: > 100 µM
- TGI [28]: 37.7 µM
- TGI [29]: > 100 µM
- TGI [30]: > 100 µM
- TGI [31]: 32.1 µM
- TGI [32]: > 100 µM
- TGI [33]: > 100 µM
- TGI [34]: > 100 µM
- TGI [35]: > 100 µM
- TGI [36]: > 100 µM
- TGI [37]: 36.1 µM
- TGI [38]: > 100 µM
- TGI [39]: > 100 µM
- TGI [40]: 50.9 µM
- TGI [41]: 38.3 µM
- TGI [42]: > 100 µM
- TGI [43]: 69.4 µM
- TGI [44]: > 100 µM
- TGI [45]: > 100 µM
- TGI [46]: 65.8 µM
- TGI [47]: 51 µM
- TGI [48]: > 100 µM
- TGI [49]: > 100 µM
- TGI [50]: 69.1 µM
- TGI [51]: > 100 µM
- TGI [53]: > 100 µM
- TGI [54]: > 100 µM
